# Experimental data published in patent US6737383B1, “Herbicidal oxadiazolidines” (priority 1999, dated 2004).
# Experiments:
# duck salad = assay: Test B flood test duck salad; type: in vivo, Heteranthera limosa
# In short: (§1)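 Flood test on plants grown to the 2-leaf stage; treated plants kept in greenhouse twelve to sixteen days, then visually rated against controls on a 0 (no effect) to 10 (complete control) scale.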
# bedstraw = assay: Test B pre/postemergence bedstraw; type: in vivo, Galium aparine
# In short: (§2)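 Test chemicals in a non-phytotoxic solvent mixture with surfactant were sprayed preemergence onto planted seeds and postemergence onto plants 2 to 18 cm tall (1- to 4-leaf stage). After twelve to sixteen days in a greenhouse, injury was visually rated against untreated controls from 0 (no effect) to 10 (complete control).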
# cocklebur = assay: Test B pre/postemergence cocklebur; type: in vivo, Xanthium strumarium
# In short: as §2
# rice = assay: Test B flood test rice; type: in vivo, Oryza sativa
# In short: as §1
# wheat = assay: Test B pre/postemergence wheat; type: in vivo, Triticum aestivum; conditions: for Plant response rating, Wheat: Rate 250 g/ha
# In short: as §2
# giant foxtail = assay: Test B pre/postemergence giant foxtail; type: in vivo, Setaria faberii
# In short: as §2
# purple nutsedge = assay: Test B pre/postemergence purple nutsedge; type: in vivo, Cyperus rotundus
# In short: as §2
# soybean = assay: Test B pre/postemergence soybean; type: in vivo, Glycine max
# In short: as §2
# bamyardgrass = assay: Test B flood test barnyardgrass; type: in vivo, Echinochloa crus-galli
# In short: as §1
# velvetleaf = assay: Test B pre/postemergence velvetleaf; type: in vivo, Abutilon theophrasti; conditions: for Plant response rating, Velvetleaf: Rate 250 g/ha
# In short: as §2
# crabgrass = assay: Test B pre/postemergence crabgrass; type: in vivo, Digitaria sanguinalis
# In short: as §2
# surinam grass = assay: Test B pre/postemergence surinam grass; type: in vivo, Brachiaria decumbens
# In short: as §2
# wild oat = assay: Test B pre/postemergence wild oat; type: in vivo, Avena fatua; conditions: for Plant response rating, Wild oats: Rate 250 g/ha
# In short: as §2
# blackgrass = assay: Test B pre/postemergence blackgrass; type: in vivo, Alopecurus myosuroides
# In short: as §2
# morningglory = assay: Test B pre/postemergence morningglory; type: in vivo, Ipomoea hederacea
# In short: as §2
# smallflower flatsedge = assay: Test B flood test smallflower flatsedge; type: in vivo, Cyperus difformis
# In short: as §1
# corn = assay: Test B pre/postemergence corn; type: in vivo, Zea mays
# In short: as §2
# [1] = Postemergence (flood test species), Rate 125 g/ha, scale of 0 to 10 where 0 is no effect and 10 is complete control
# [2] = Rate 62 g/ha, Postemergence section, flood test species, scale of 0 to 10 where 0 is no effect and 10 is complete control
# [3] = Rate 500 g/ha, listed under Postemergence (flood test species), scale 0 to 10, 0 no effect, 10 complete control
# [4] = flood test, listed under Postemergence, Rate 250 g/ha, scale 0 to 10, 0 no effect, 10 complete control
# [5] = Preemergence, Rate 62 g/ha, scale 0 to 10 (0 no effect, 10 complete control)
# [6] = Preemergence, Rate 125 g/ha, scale 0 to 10 (0 no effect, 10 complete control)
# [7] = Preemergence, Rate 250 g/ha, scale of 0 to 10 where 0 is no effect and 10 is complete control
# [8] = Preemergence, Rate 500 g/ha, scale 0 to 10 (0 no effect, 10 complete control)
# [9] = Rate 500 g/ha, Postemergence, scale 0 to 10, 0 no effect, 10 complete control
# [10] = Postemergence, Rate 125 g/ha, scale of 0 to 10 where 0 is no effect and 10 is complete control
# [11] = Postemergence, Rate 250 g/ha, scale 0 to 10, 0 no effect, 10 complete control
# [12] = Rate 62 g/ha, Postemergence, scale of 0 to 10 where 0 is no effect and 10 is complete control
# [13] = Rate 250 g/ha, Postemergence (flood test), scale 0 to 10, 0 is no effect, 10 is complete control
# [14] = Preemergence, Rate 125 g/ha, 0 is no effect, 10 is complete control
# [15] = Preemergence, scale of 0 to 10 where 0 is no effect and 10 is complete control
# [16] = Postemergence, scale 0 to 10, 0 is no effect, 10 is complete control
# [17] = Postemergence, Rate 62 g/ha, scale 0 to 10, 0 is no effect, 10 is complete control
compound,measurement,setting,value
Cc1nn(C)c(C)c1-n1c(=O)on(C(=O)N(c2ccccc2)C(C)C)c1=O [Compound 120],Ducksalad plant response rating,duck salad; [1],0
same,Ducksalad plant response rating,duck salad; [2],0
same,Ducksalad plant response rating,duck salad; [3],0
same,Ducksalad plant response rating,duck salad; [4],0
same,Bedstraw plant response rating,bedstraw; [5],0
same,"Plant response rating, Bedstraw",bedstraw; [6],0
same,"Plant response rating, Bedstraw",bedstraw; [7],0
same,Bedstraw plant response rating,bedstraw; [8],0
same,Bedstraw plant response rating,bedstraw; [9],2
same,Cocklebur plant response rating,cocklebur; [10],1
same,Cocklebur plant response rating,cocklebur; [11],3
same,Cocklebur plant response rating,cocklebur; [5],0
same,"Plant response rating, Cocklebur",cocklebur; [6],0
same,"Plant response rating, Cocklebur",cocklebur; [7],0
same,Cocklebur plant response rating,cocklebur; [8],0
same,Cocklebur plant response rating,cocklebur; [12],1
same,Cocklebur plant response rating,cocklebur; [9],4
same,Rice plant response rating,rice; [1],0
same,Rice plant response rating,rice; [2],0
same,"Plant response rating, Rice",rice; [13],2
same,Rice plant response rating,rice; [3],3
same,Wheat plant response rating,wheat; [10],0
same,Wheat plant response rating,wheat; [5],0
same,Wheat plant response rating (0 to 10 scale),wheat; [14],0
same,"Plant response rating, Wheat",wheat; [15],2
same,Wheat plant response rating,wheat; [8],6
same,Wheat plant response rating,wheat; [12],0
same,"Plant response rating, Wheat",wheat; [16],0
same,Wheat plant response rating,wheat; [9],4
same,Giant foxtail plant response rating,giant foxtail; [10],6
same,Giant foxtail plant response rating,giant foxtail; [11],8
same,Giant foxtail plant response rating,giant foxtail; [5],8
same,"Plant response rating, Giant foxtail",giant foxtail; [6],9
same,"Plant response rating, Giant foxtail",giant foxtail; [7],9
same,Giant foxtail plant response rating,giant foxtail; [8],10
same,Giant foxtail plant response rating,giant foxtail; [12],3
same,Giant foxtail plant response rating,giant foxtail; [9],8
same,Nutsedge plant response rating,purple nutsedge; [10],0
same,Nutsedge plant response rating,purple nutsedge; [11],0
same,Nutsedge plant response rating,purple nutsedge; [5],0
same,"Plant response rating, Nutsedge",purple nutsedge; [6],0
same,"Plant response rating, Nutsedge",purple nutsedge; [7],0
same,Nutsedge plant response rating,purple nutsedge; [8],0
same,Nutsedge plant response rating,purple nutsedge; [12],0
same,Soybean plant response rating,soybean; [10],3
same,Soybean plant response rating,soybean; [5],0
same,"Plant response rating, Soybean",soybean; [6],0
same,"Plant response rating, Soybean",soybean; [7],0
same,Soybean plant response rating,soybean; [8],0
same,Soybean plant response rating,soybean; [12],2
same,"Plant response rating, Soybean","soybean; Rate 250 g/ha, Postemergence, scale 0 to 10, 0 is no effect, 10 is complete control",4
same,Soybean plant response rating,soybean; [9],6
same,Barnyardgrass plant response rating,bamyardgrass; [17],0
same,Barnyardgrass plant response rating,"bamyardgrass; Rate 125 g/ha, Postemergence section (flood test species), scale 0 to 10, 0 no effect, 10 complete control",0
same,Barnyardgrass plant response rating,bamyardgrass; [3],0
same,Barnyardgrass plant response rating,bamyardgrass; [4],0
same,Velvetleaf plant response rating,velvetleaf; [10],0
same,Velvetleaf plant response rating,velvetleaf; [5],0
same,Velvetleaf plant response rating (0 to 10 scale),velvetleaf; [14],0
same,"Plant response rating, Velvetleaf",velvetleaf; [15],0
same,Velvetleaf plant response rating,velvetleaf; [8],3
same,Velvetleaf plant response rating,velvetleaf; [12],0
same,"Plant response rating, Velvetleaf",velvetleaf; [16],2
same,Velvetleaf plant response rating,velvetleaf; [9],6
same,Crabgrass plant response rating,crabgrass; [10],7
same,Crabgrass plant response rating,crabgrass; [11],9
same,Crabgrass plant response rating,crabgrass; [5],6
same,"Plant response rating, Crabgrass",crabgrass; [6],6
same,"Plant response rating, Crabgrass",crabgrass; [7],9
same,Crabgrass plant response rating,crabgrass; [8],9
same,Crabgrass plant response rating,crabgrass; [12],5
same,Crabgrass plant response rating,crabgrass; [9],9
same,B. signalgrass plant response rating,surinam grass; [17],0
same,B. signalgrass plant response rating,surinam grass; [11],7
same,B. signalgrass plant response rating,surinam grass; [5],0
same,"Plant response rating, B. signalgrass",surinam grass; [6],3
same,"Plant response rating, B. signalgrass",surinam grass; [7],6
same,B. signalgrass plant response rating,surinam grass; [8],8
same,B. signalgrass plant response rating,"surinam grass; Rate 125 g/ha, Postemergence, scale 0 to 10, 0 no effect, 10 complete control",4
same,B. signalgrass plant response rating,"surinam grass; Rate 500 g/ha, Postemergence, scale of 0 to 10 where 0 is no effect and 10 is complete control",8
same,Wild oats plant response rating,wild oat; [10],0
same,Wild oats plant response rating,wild oat; [5],0
same,Wild oats plant response rating (0 to 10 scale),wild oat; [14],2
same,"Plant response rating, Wild oats",wild oat; [15],6
same,Wild oats plant response rating,wild oat; [8],8
same,Wild oats plant response rating,wild oat; [12],0
same,"Plant response rating, Wild oats",wild oat; [16],0
same,Wild oats plant response rating,wild oat; [9],2
same,Blackgrass plant response rating,blackgrass; [10],4
same,Blackgrass plant response rating,blackgrass; [11],6
same,Blackgrass plant response rating,blackgrass; [5],0
same,"Plant response rating, Blackgrass",blackgrass; [6],3
same,"Plant response rating, Blackgrass",blackgrass; [7],7
same,Blackgrass plant response rating,blackgrass; [8],8
same,Blackgrass plant response rating,blackgrass; [12],0
same,Blackgrass plant response rating,blackgrass; [9],8
same,Morningglory plant response rating,morningglory; [10],7
same,Morningglory plant response rating,morningglory; [11],8
same,Morningglory plant response rating,morningglory; [5],0
same,"Plant response rating, Morningglory",morningglory; [6],0
same,"Plant response rating, Morningglory",morningglory; [7],0
same,Morningglory plant response rating,morningglory; [8],0
same,Morningglory plant response rating,morningglory; [12],4
same,Morningglory plant response rating,morningglory; [9],8
same,S. Flatsedge plant response rating,smallflower flatsedge; [1],0
same,S. Flatsedge plant response rating,smallflower flatsedge; [2],0
same,"Plant response rating, S. Flatsedge",smallflower flatsedge; [13],0
same,S. Flatsedge plant response rating,smallflower flatsedge; [3],0
same,Corn plant response rating,corn; [10],0
same,Corn plant response rating,corn; [11],2
same,Corn plant response rating,corn; [5],0
same,"Plant response rating, Corn",corn; [6],0
same,"Plant response rating, Corn",corn; [7],0
same,Corn plant response rating,corn; [8],0
same,Corn plant response rating,corn; [12],0
same,Corn plant response rating,corn; [9],4
